# Assay results published in patent US20230295162A1 (EÖTVÖS LORÁND TUDOMÁNYEGYETEM, priority 2020, published 2023).
# Like-named read-outs stand apart in the source and are kept apart here.
# Legend:
# [1] = test system: Panc1 pancreatic cancer cell line; experiment: CellTiter-Glo IC50 (Example 19); type: cell-based; conditions: Homo sapiens, PANC-1, 72 h
# Procedure, shortened: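 Cultures grown under ATCC conditions at 37° C with 5% CO2 are plated at 1000 cells/well, treated with compound, then lysed with CellTiter-Glo after medium removal. Luminescence gives viability as a fraction of untreated cells; IC50 is taken from a log(inhibitor) vs response fit.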
# [2] = test system: Panc-1 human cell line; experiment: Cytotoxicity on Panc-1, xCELLigence SP, IC50 after 24 h, 48 h, 72 h and 96 h (Example 22)
# [3] = test system: DU 145 (prostate, carcinoma) cells; experiment: Cell viability assay, CellTiter-Glo (Example 21); type: cell-based, human; conditions: 72 h
# Procedure, shortened: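 DU 145 cancer cell viability was assessed with the CellTiter-Glo® luminescent assay (Promega, Madison, WI, USA), following the manufacturer's instructions. Cells were seeded at 1000 cells/well in flat-bottomed white 96 well plates, and after treatment luminescence was read on a BioTek Synergy 2 Multi-Mode Reader.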
# [4] = test system: Detroit 562 (pharynx, carcinoma) cells; experiment: Cell viability assay, CellTiter-Glo (Example 21); type: cell-based, human; conditions: 72 h treatment
# Procedure, shortened: (§1)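 Seeding density per line: Panc-1 750, FaDu 1000, Detroit 562 and MDA-MB-453 1500 cells/well. Viability after treatment read by CellTiter-Glo luminescence; dose-response curves fitted by four-parameter variable-slope non-linear regression.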
# [5] = test system: LNCaP (prostate, carcinoma) cells; experiment: Cell viability assay, CellTiter-Glo (Example 21); type: cell-based, human; conditions: 72 h
# Procedure, shortened: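 LNCaP prostate carcinoma cell viability was assessed with the CellTiter-Glo® luminescent assay (Promega), following the manufacturer's instructions. Cells were seeded at 1500 cells/well into flat-bottomed white 96 well plates, treated, and then luminescence was read on a BioTek Synergy 2 Multi-Mode Reader. Dose-response curves were fitted in GraphPad Prism 8.4.2 by four-parameter variable-slope non-linear regression.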
# [6] = test system: MIA PaCa-2 (pancreas, carcinoma) cells; experiment: Cell viability assay, CellTiter-Glo (Example 21); type: cell-based, human; conditions: 72 h treatment
# Procedure, shortened: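 MIA PaCa-2 pancreatic carcinoma cells were seeded at 1000 cells/well in flat-bottomed white 96 well plates (BRANDplates®, cat. no.: 781965) and treated with compound. Viability was then determined with the CellTiter-Glo® luminescent cell viability assay (Promega) following the manufacturer's instructions, with luminescence read on a BioTek Synergy 2 Multi-Mode Reader.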
# [7] = test system: PC-3 (prostate, adenocarcinoma) cells; experiment: Cell viability assay, CellTiter-Glo (Example 21); type: cell-based, human; conditions: 72 h treatment
# Procedure, shortened: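 PC-3 prostate adenocarcinoma cells were seeded at 1000 cells/well in flat-bottomed white 96 well plates and treated with compounds. Viability was then determined with the CellTiter-Glo® luminescent assay (Promega) following the manufacturer's instructions, with luminescence read on a BioTek Synergy 2 Multi-Mode Reader.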
# [8] = test system: FaDu (pharynx, squamous cell carcinoma) cells; experiment: Cell viability assay, CellTiter-Glo (Example 21); type: cell-based, human; conditions: 72 h treatment
# Procedure, shortened: as §1
# [9] = test system: Capan-1 (pancreas, adenocarcinoma) cells; experiment: Cell viability assay, CellTiter-Glo (Example 21); type: cell-based, human; conditions: 72 h treatment
# Procedure, shortened: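 Capan-1 cells were seeded at 1000 cells/well in flat-bottomed white 96 well plates (BRANDplates®), with density optimized for cell size and growth rate. Following compound treatment, viability was measured with the CellTiter-Glo® luminescent assay (Promega) per the manufacturer's instructions, reading luminescence on a BioTek Synergy 2 Multi-Mode Reader.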
# [10] = test system: Panc-1 (pancreas, carcinoma) cells; experiment: Cell viability assay, CellTiter-Glo (Example 21); type: cell-based, human; conditions: 72 h treatment
# Procedure, shortened: as §1
# [11] = test system: SCC-25 (tongue, squamous cell carcinoma) cells; experiment: Cell viability assay, CellTiter-Glo (Example 21); type: cell-based, human; conditions: 72 h treatment
# Procedure, shortened: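 SCC-25 tongue squamous cell carcinoma cells were seeded at 1000 cells/well in flat-bottomed white 96 well plates, treated with compound, and viability was then determined with the CellTiter-Glo luminescent assay (Promega) following the manufacturer's instructions. Luminescence was read on a BioTek Synergy 2 Multi-Mode Reader.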
# [12] = test system: MDA-MB-231 (breast, adenocarcinoma) cells; experiment: Cell viability assay, CellTiter-Glo (Example 21); type: cell-based, human; conditions: 72 h treatment
# Procedure, shortened: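 MDA-MB-231 breast adenocarcinoma cells were seeded at 1500 cells/well in flat-bottomed white 96 well plates (BRANDplates®, cat. no.: 781965). Following compound exposure, viability was assessed with the CellTiter-Glo® luminescent assay (Promega) following the manufacturer's protocol, and luminescence was read on a BioTek Synergy 2 Multi-Mode Reader.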
# [13] = test system: EBC-1 (lung, squamous cell carcinoma) cells; experiment: Cell viability assay, CellTiter-Glo (Example 21); type: cell-based, human; conditions: 72 h treatment
# Procedure, shortened: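 EBC-1 lung squamous cell carcinoma cells were seeded at 1000 cells/well in flat-bottomed white 96 well plates. After compound treatment, viability was measured with the CellTiter-Glo luminescent assay following the manufacturer's instructions, and luminescence was read on a BioTek Synergy 2 Multi-Mode microplate reader.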
# [14] = test system: MDA-MB-453 (breast, carcinoma) cells; experiment: Cell viability assay, CellTiter-Glo (Example 21); type: cell-based, human; conditions: 72 h treatment
# Procedure, shortened: as §1
# [15] = test system: PANC-1 (human pancreatic carcinoma) cells; experiment: Impedance-based viability assay (xCELLigence SP), long treatment; type: cell-based; conditions: 72 h, read-out: cytotoxicity expressed in IC50, PANC-1
# From the text: (Gibco®/Invitrogen Corporation, New York, NY, USA).
# Data obtained from each experiment represent mathematical averages.
# [16] = test system: Detroit 562 cell line; experiment: Additional in vitro IC50 tests (Table 3); type: cell-based; conditions: Homo sapiens
# Procedure, shortened: (§2)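 Cells at 1000/well, viability by CellTiter-Glo luminescence after compound treatment, as % of untreated control. IC50 from variable-slope log(inhibitor) vs response nonlinear regression.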
# [17] = test system: H2228 cell line; experiment: Additional in vitro IC50 tests (Table 3); type: cell-based; conditions: Homo sapiens, NCI-H2228
# Procedure, shortened: as §2
# [18] = test system: SCC-25 cell line; experiment: Additional in vitro IC50 tests (Table 3); type: cell-based; conditions: Homo sapiens
# Procedure, shortened: as §2
# [19] = test system: EBC-1 cell line; experiment: Additional in vitro IC50 tests (Table 3); type: cell-based; conditions: Homo sapiens
# Procedure, shortened: as §2
# [20] = test system: Fadu cell line; experiment: Additional in vitro IC50 tests (Table 3); type: cell-based; conditions: Homo sapiens
# Procedure, shortened: as §2
compound,measurement,setting,value
"[N-]=[N+]=Nc1ccc(CN2C(=O)C3=C(CCN(Cc4cc(F)cc(F)c4)C3)N3CCN=C23)cc1 [I/107, 4-(4-Azidobenzyl)-7-(3,5-difluorobenzyl)-2,4,6,7,8,9-hexahydroimidazo[1,2-a]pyrido[3,4-e]pyrimidin-5(1H)-one]",IC50,[1],0.014 µM
same,IC50,"[2]; PANC-1, 72 h, read-out: IC50 (72 h) [nM]",102 ± 24.4 nM
same,IC50,"[2]; PANC-1, 96 h, read-out: IC50 (96 h) [nM]",49.6 ± 17 nM
same,DU 145 cell viability,[3]; 3.7 nM,101.2 ± 6.5 % of control
same,DU 145 cell viability,[3]; 11.1 nM,48.7 ± 1.7 % of control
same,DU 145 cell viability,[3]; 100 nM,8.3 ± 2.9 % of control
same,DU 145 cell viability,[3]; 300 nM,9.0 ± 2.9 % of control
same,"Detroit 562 (pharynx, carcinoma) cell viability (% of control)",[4]; 3.7 nM,86.6 ± 5.7 % of control
same,"Detroit 562 (pharynx, carcinoma) cell viability (% of control)",[4]; 11.1 nM,36.8 ± 5.1 % of control
same,"Detroit 562 (pharynx, carcinoma) cell viability (% of control)",[4]; 100 nM,31.4 ± 2.9 % of control
same,"Detroit 562 (pharynx, carcinoma) cell viability (% of control)",[4]; 300 nM,34.1 ± 6.5 % of control
same,LNCaP cell viability,[5]; 3.7 nM,95.3 ± 2.3 % of control
same,LNCaP cell viability,[5]; 11.1 nM,37.9 ± 3.3 % of control
same,LNCaP cell viability,[5]; 100 nM,13.5 ± 0.7 % of control
same,LNCaP cell viability,[5]; 300 nM,13.6 ± 0.6 % of control
same,"MIA PaCa-2 (pancreas, carcinoma) cell viability (% of control)",[6]; 3.7 nM,102.5 ± 5.4 % of control
same,"MIA PaCa-2 (pancreas, carcinoma) cell viability (% of control)",[6]; 11.1 nM,91.5 ± 6.6 % of control
same,"MIA PaCa-2 (pancreas, carcinoma) cell viability (% of control)",[6]; 100 nM,18.8 ± 6.2 % of control
same,"MIA PaCa-2 (pancreas, carcinoma) cell viability (% of control)",[6]; 300 nM,17.4 ± 7.1 % of control
same,"PC-3 (prostate, adenocarcinoma) cell viability (% of control)",[7]; 3.7 nM,107.1 ± 5.9 % of control
same,"PC-3 (prostate, adenocarcinoma) cell viability (% of control)",[7]; 11.1 nM,82.3 ± 7.0 % of control
same,"PC-3 (prostate, adenocarcinoma) cell viability (% of control)",[7]; 100 nM,32.7 ± 2.6 % of control
same,"PC-3 (prostate, adenocarcinoma) cell viability (% of control)",[7]; 300 nM,32.8 ± 4.1 % of control
same,"FaDu (pharynx, squamous cell carcinoma) cell viability (% of control)",[8]; 3.7 nM,98.6 ± 1.9 % of control
same,"FaDu (pharynx, squamous cell carcinoma) cell viability (% of control)",[8]; 11.1 nM,74.3 ± 4.2 % of control
same,"FaDu (pharynx, squamous cell carcinoma) cell viability (% of control)",[8]; 100 nM,24.6 ± 3.6 % of control
same,"FaDu (pharynx, squamous cell carcinoma) cell viability (% of control)",[8]; 300 nM,25.5 ± 4.3 % of control
same,"Capan-1 (pancreas, adenocarcinoma) cell viability (% of control)",[9]; 3.7 nM,103.5 ± 3.0 % of control
same,"Capan-1 (pancreas, adenocarcinoma) cell viability (% of control)",[9]; 11.1 nM,101.2 ± 5.2 % of control
same,"Capan-1 (pancreas, adenocarcinoma) cell viability (% of control)",[9]; 100 nM,37.6 ± 2.3 % of control
same,"Capan-1 (pancreas, adenocarcinoma) cell viability (% of control)",[9]; 300 nM,34.7 ± 2.9 % of control
same,"Panc-1 (pancreas, carcinoma) cell viability (% of control)",[10]; 3.7 nM,107.9 ± 11.5 % of control
same,"Panc-1 (pancreas, carcinoma) cell viability (% of control)",[10]; 11.1 nM,93.6 ± 8.1 % of control
same,"Panc-1 (pancreas, carcinoma) cell viability (% of control)",[10]; 100 nM,54.2 ± 0.6 % of control
same,"Panc-1 (pancreas, carcinoma) cell viability (% of control)",[10]; 300 nM,55.0 ± 3.2 % of control
same,"SCC-25 (tongue, squamous cell carcinoma) cell viability (% of control)",[11]; 3.7 nM,97.3 ± 3.8 % of control
same,"SCC-25 (tongue, squamous cell carcinoma) cell viability (% of control)",[11]; 11.1 nM,75.6 ± 6.8 % of control
same,"SCC-25 (tongue, squamous cell carcinoma) cell viability (% of control)",[11]; 100 nM,35.4 ± 5.7 % of control
same,"SCC-25 (tongue, squamous cell carcinoma) cell viability (% of control)",[11]; 300 nM,42.4 ± 5.7 % of control
same,"MDA-MB-231 (breast, adenocarcinoma) cell viability (% of control)",[12]; 3.7 nM,102.1 ± 3.5 % of control
same,"MDA-MB-231 (breast, adenocarcinoma) cell viability (% of control)",[12]; 11.1 nM,98.6 ± 0.8 % of control
same,"MDA-MB-231 (breast, adenocarcinoma) cell viability (% of control)",[12]; 100 nM,57.3 ± 1.8 % of control
same,"MDA-MB-231 (breast, adenocarcinoma) cell viability (% of control)",[12]; 300 nM,55.7 ± 0.9 % of control
same,"EBC-1 (lung, squamous cell carcinoma) cell viability (% of control)",[13]; 3.7 nM,99.9 ± 2.5 % of control
same,"EBC-1 (lung, squamous cell carcinoma) cell viability (% of control)",[13]; 11.1 nM,70.3 ± 0.9 % of control
same,"EBC-1 (lung, squamous cell carcinoma) cell viability (% of control)",[13]; 100 nM,23.5 ± 1.0 % of control
same,"EBC-1 (lung, squamous cell carcinoma) cell viability (% of control)",[13]; 300 nM,23.5 ± 2.5 % of control
same,"MDA-MB-453 (breast, carcinoma) cell viability (% of control)",[14]; 3.7 nM,107.2 ± 9.1 % of control
same,"MDA-MB-453 (breast, carcinoma) cell viability (% of control)",[14]; 11.1 nM,47.8 ± 6.2 % of control
same,"MDA-MB-453 (breast, carcinoma) cell viability (% of control)",[14]; 100 nM,32.3 ± 1.3 % of control
same,"MDA-MB-453 (breast, carcinoma) cell viability (% of control)",[14]; 300 nM,32.2 ± 1.3 % of control
same,IC50,[15],0.011 µM
same,IC50,[16],0.007 µM
same,IC50,[17],0.024 µM
same,IC50,[18],0.031 µM
same,IC50,[19],0.017 µM
same,IC50,[20],0.019 µM
